The text below walks through data of patent US12064425B2, “Compositions and methods for targeting a viral infection” (priority 2018, dated 2024).

Entries after “also recorded” stand apart in the source; their conditions may differ. Read-outs that look alike come from different tables or passages of the source.

The target of one data set is HIV-1 Env (Human immunodeficiency virus type 1, UniProt Q71014).
The subject of data set [1] is gp41-inter binding to 240D Fab. On the set-up: species or system HIV-1.
In the next data set the test system is 2F5 Fab. In words: SPR analysis of compound binding to 2F5 Fab. On the technique in general: SPR reads the build-up and loss of mass on a sensor chip optically.
A further data set deals with HIV-1 Env pseudoviruses. Type of data set: cell-based.
The subject of data set [2] is gp41-inter binding to 2F5 Fab. On the set-up: species or system HIV-1.
In a further data set the target is gp41-inter (Human immunodeficiency virus type 1, UniProt Q71014). The data set is classed as binding, HIV-1.
In data set [3] the test system is Env-expressing cells, CD4- and CCR5-expressing cells.
Data set [4] deals with 92UG037.8 HIV-1 Env W666A (Human immunodeficiency virus type 1, UniProt Q71014, W659A). Type of data set: cell-based.

Take `Cc1cc(N)c2ccccc2n1` [4-aminoquinaldine]: at HIV-1 Env, the “activity in blocking HIV-1 Env mediated cell-cell fusion (in words)” value was “no activity”.
With `Nc1cc[n+](CCCCCCCCCC[n+]2ccc(N)c3ccccc32)c2ccccc12` [Compound S2C1], at HIV-1 Env, the “inhibition potency in the cell-cell fusion assay compared to dequalinium” value (“inhibition potency … compared to dequalinium” for short) is given as “significant decreases in potency”.
As to `Nc1c2c([n+](CCCCCCCCCC[n+]3c4c(c(N)c5ccccc53)CCC4)c3ccccc13)CCC2` [Compound S2C3], the “competition with 240D Fab for binding to gp41-inter” value in data set [1] is “not with a cluster I antibody, 240D Fab”. Besides, the “inhibition potency … compared to dequalinium” value on HIV-1 Env is “significant improvement”. In addition, in the data set with 2F5 Fab, the “binding to 2F5” value is listed as “no binding”. For the same compound, in the data set on HIV-1 Env pseudoviruses, the “potency of inhibition of viral infectivity compared to dequalinium” value is “improvement in potency”. For the same compound, the “competition with 2F5 for binding to gp41-inter” value in data set [2] is reported as “competed with 2F5 for binding to gp41-inter”.
With `Nc1cc[n+](CCCCCCCCCC[n+]2ccc(N)c3cc(Br)ccc32)c2ccc(Br)cc12` [Compound S2C7], the “inhibition potency … compared to dequalinium” value at HIV-1 Env is given as “modestly improved potency”.
The same measure, in the same setting: as for `Cc1cc(N)cc[n+]1CCCCCCCCCC[n+]1ccc(N)cc1C` [Compound S2C9], the entry is “significant decreases in potency”.
Regarding `c1ccc2c(c1)ccc[n+]2CCCCCCCCCC[n+]1cccc2ccccc21` [Compound S2C10], on gp41-inter, the “binding to gp41-inter (in words)” value is “no binding”. Also, the “inhibition potency … compared to dequalinium” value against HIV-1 Env is “significant decreases in potency”.
Regarding `Cc1cc(N)c2ccccc2[n+]1CCCCCCCCCC[n+]1c(C)cc(N)c2ccccc21` [dequalinium, quinolinium,1,1′-(1,10-decanediyl)-bis(4-amino-2-methyldiiodide)], on HIV-1 Env, the “inhibition of cell-cell fusion mediated by Envs of primary HIV-1 isolates of different clades” value is listed as “can also target Envs from multiple primary HIV-1 isolates of different clades; also recorded: specifically inhibited cell-cell fusion”. For the same compound, in [3], the “cytotoxicity by an assay measuring ATP concentration” value is “minimal level of cytotoxicity”. In data set [4], the “resistance of mutant Env to inhibition of cell-cell fusion versus wildtype Env” value is “significantly more resistant”. Also, in the data set with 2F5 Fab (SPR), the “binding to 2F5” value is “no binding”. In the data set with HIV-1 Env pseudoviruses, the “inhibition of HIV-1 infectivity versus MuLV control” value is recorded as “greater inhibition to several HIV-1 isolates”. Also, in the data set on TZM.bl cells, the “cytotoxicity in the viral infectivity assay” value is given as “more cytotoxicity than in the cell-cell fusion assay”.
